Consider 76 compounds from ChEMBL document CHEMBL1145549, “Constrained NBMPR analogue synthesis, pharmacophore mapping and 3D-QSAR modeling of equilibrative nucleoside transporter 1 (ENT1) inhibitory activity” (Bioorg Med Chem, 2008).

Molecules are shown by their SMILES.

This experiment concerns the target T1, Equilibrative nucleoside transporter 1 (Homo sapiens, UniProt Q99808).
T1 sequence (Q99808 whole entry): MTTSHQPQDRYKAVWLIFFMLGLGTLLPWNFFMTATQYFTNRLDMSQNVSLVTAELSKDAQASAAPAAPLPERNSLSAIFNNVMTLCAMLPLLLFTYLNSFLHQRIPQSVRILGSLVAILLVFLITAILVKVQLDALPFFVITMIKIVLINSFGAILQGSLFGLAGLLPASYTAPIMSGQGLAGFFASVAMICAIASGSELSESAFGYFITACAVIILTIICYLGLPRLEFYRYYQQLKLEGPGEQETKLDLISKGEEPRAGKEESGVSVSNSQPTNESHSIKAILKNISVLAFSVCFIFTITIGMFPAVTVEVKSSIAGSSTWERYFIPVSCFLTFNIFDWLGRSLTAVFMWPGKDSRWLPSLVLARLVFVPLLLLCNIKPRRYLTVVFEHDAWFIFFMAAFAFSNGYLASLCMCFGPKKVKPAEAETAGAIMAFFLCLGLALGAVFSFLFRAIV
The experiment is described as follows: Binding affinity to ENT1 transporter.
A word on the IC50: it is the concentration that inhibits the measured activity by half. Read a low IC50 as greater potency. Turning to `OC[C@H]1O[C@@H](n2cnc3c(Nc4ccccc4)ncnc32)[C@H](O)[C@@H]1O` [N6-PHENYLADENOSINE], the IC50 is 32.4 µM. Consider `OC[C@H]1O[C@@H](n2cnc3c(CSc4cccc(Cl)c4)ncnc32)[C@H](O)[C@@H]1O`, for which the IC50 was 0.282 µM. Next, `CCCn1cnc2c(SCc3ccccn3)nc(N)nc21`: 91.2 µM.

On to `CC(C)c1ccc(CSc2ncnc3c2ncn3[C@@H]2O[C@H](CO)[C@@H](O)[C@H]2O)cc1`, for which the half-inhibitory concentration (IC50) was 4.79 µM. `OC[C@H]1O[C@@H](n2cnc3c(CSc4cccc(C(F)(F)F)c4)ncnc32)[C@H](O)[C@@H]1O` gave a half-inhibitory concentration (IC50) of 0.331 µM. Next, `Cc1c(CNc2ncnc3c2ncn3[C@@H]2O[C@H](CO)[C@@H](O)[C@H]2O)cccc1[N+](=O)[O-]`: 0.427 µM. Next, `CC(C)Sc1nc(N)nc2c1ncn2[C@@H]1O[C@H](CO)[C@@H](O)[C@H]1O`: 191 µM; `CN(Cc1ccc([N+](=O)[O-])cc1)c1ncnc2c1ncn2[C@@H]1O[C@H](CO)[C@@H](O)[C@H]1O`: 0.309 µM; `CCC(C)Sc1nc(N)nc2c1ncn2[C@@H]1O[C@H](CO)[C@@H](O)[C@H]1O` (stereo partly specified): 63.1 µM. Next, `OC[C@H]1O[C@@H](n2ccc3c(S)ncnc32)[C@H](O)[C@@H]1O`: 389 µM; `OC[C@H]1O[C@@H](n2cnc3c(CSc4ccccc4Br)ncnc32)[C@H](O)[C@@H]1O`: 2.4 µM. The compound `Nc1nc(SCc2cc([N+](=O)[O-])ccc2O)c2ncn([C@@H]3O[C@H](CO)[C@@H](O)[C@H]3O)c2n1` showed a concentration for half-maximal inhibition (IC50) of 0.00275 µM. Next, `Cc1cccc(CSc2ncnc3c2ncn3[C@@H]2O[C@H](CO)[C@@H](O)[C@H]2O)c1`: 12 µM; `CC(=O)c1ccccc1Sc1nc(N)nc2c1ncn2[C@@H]1O[C@H](CO)[C@@H](O)[C@H]1O`: 447 µM; `OC[C@H]1O[C@@H](n2cnc3c(CSc4ccc(F)cc4)ncnc32)[C@H](O)[C@@H]1O`: 0.158 µM. Next, `Nc1nc(SCc2cccnc2)c2ncn([C@@H]3O[C@H](CO)[C@@H](O)[C@H]3O)c2n1`: 14.8 µM.

The compound `OC[C@H]1O[C@@H](n2ccc3c(N4CCCCC4)ncnc32)[C@H](O)[C@@H]1O` showed an IC50 of 195 µM.

Compound `O=[N+]([O-])c1ccc2c(c1)CN(c1ncnc3c1ncn3[C@@H]1O[C@H](CO)[C@@H](O)[C@H]1O)CC2` had a 50% inhibitory concentration (IC50) of 0.0055 µM. Consider `C[C@H]1O[C@@H](n2cnc3c(NCc4ccc([N+](=O)[O-])cc4)ncnc32)[C@H](O)[C@@H]1O`, for which the IC50 was 0.0219 µM. Next, `OC[C@H]1O[C@@H](n2cnc3c(SC4CCCCC4)ncnc32)[C@H](O)[C@@H]1O`: 6.31 µM; `OC[C@H]1O[C@@H](n2cnc3c(NCc4ccco4)ncnc32)[C@H](O)[C@@H]1O` [KINETIN RIBOSIDE]: 36.3 µM; `Cc1ccccc1CSc1ncnc2c1ncn2[C@@H]1O[C@H](CO)[C@@H](O)[C@H]1O`: 6.31 µM. Regarding `OC[C@H]1O[C@@H](n2cnc3c(OCc4ccccc4)ncnc32)[C@H](O)[C@@H]1O`, the concentration for half-maximal inhibition (IC50) was 2.09 µM. Next, `Nc1nc(SCc2cccc([N+](=O)[O-])c2)c2ncn([C@@H]3O[C@H](CO)[C@@H](O)[C@H]3O)c2n1`: 0.178 µM; `OC[C@H]1O[C@@H](n2ccc3c(SCc4ccccc4)ncnc32)[C@H](O)[C@@H]1O`: 5.25 µM; `O=[N+]([O-])c1ccc(O)c(CSc2ncnc3c2ncn3[C@@H]2O[C@H](CO)[C@@H](O)[C@H]2O)c1`: 0.0331 µM. Next, `CCCSc1nc(N)nc2c1ncn2CC(C)C`: 63.1 µM. Next, `CSc1ncnc2c1c(Br)cn2[C@@H]1O[C@H](CO)[C@@H](O)[C@H]1O`: 115 µM; `Nc1nc(SCc2ccccc2Cl)c2ncn([C@@H]3O[C@H](CO)[C@@H](O)[C@H]3O)c2n1`: 13.5 µM. Regarding `Nc1nc(SCCc2ccccc2)c2ncn([C@@H]3O[C@H](CO)[C@@H](O)[C@H]3O)c2n1`, the IC50 is 16.2 µM. As to `Cn1cnc([N+](=O)[O-])c1Sc1nc(N)nc2c1ncn2[C@@H]1O[C@H](CO)[C@@H](O)[C@H]1O`, the concentration for half-maximal inhibition (IC50) is 575 µM. For `CC(C)CCNc1ncnc2[nH]ncc12`, the IC50 is 234 µM. Next, `Cc1cc(CNc2ncnc3c2ncn3[C@@H]2O[C@H](CO)[C@@H](O)[C@H]2O)ccc1[N+](=O)[O-]`: 0.0871 µM; `CCSc1nc(N)nc2c1ncn2[C@@H]1O[C@H](CO)[C@@H](O)[C@H]1O`: 162 µM. Next, `Nc1nc(SCc2ccccn2)c2ncn([C@@H]3O[C@H](CO)[C@@H](O)[C@H]3O)c2n1`: 34.7 µM; `OC[C@H]1O[C@@H](n2cnc3c(SCCCc4ccccc4)ncnc32)[C@H](O)[C@@H]1O`: 1.35 µM.

`OC[C@H]1O[C@@H](n2cnc3c(CSc4ccc(Cl)cc4Cl)ncnc32)[C@H](O)[C@@H]1O` showed an IC50 of 0.0776 µM. In turn, `OC[C@H]1O[C@@H](n2cc(I)c3c(Cl)ncnc32)[C@H](O)[C@@H]1O` showed a half-inhibitory concentration (IC50) of 77.6 µM.

`O=[N+]([O-])c1ccc2c(c1)CCN(c1ncnc3c1ncn3[C@@H]1O[C@H](CO)[C@@H](O)[C@H]1O)C2`: the 50% inhibitory concentration (IC50) is 0.182 µM. Next, `CCCCn1cnc2c(SC)nc(N)nc21`: 219 µM; `O=[N+]([O-])c1cccc2c1CCN(c1ncnc3c1ncn3[C@@H]1O[C@H](CO)[C@@H](O)[C@H]1O)C2`: 3.02 µM; `OC[C@H]1O[C@@H](n2cnc3c(CSc4ccccc4Cl)ncnc32)[C@H](O)[C@@H]1O`: 1.78 µM. Turning to `COc1ccc(SCc2ncnc3c2ncn3[C@@H]2O[C@H](CO)[C@@H](O)[C@H]2O)cc1`, the IC50 is 0.617 µM. Next, `C=CCSc1ncnc2c1ncn2[C@@H]1O[C@H](CO)[C@@H](O)[C@H]1O`: 13.8 µM; `CCCSc1nc(N)nc2c1ncn2[C@@H]1O[C@H](CO)[C@@H](O)[C@H]1O`: 32.4 µM; `Nc1ccc(CNc2ncnc3c2ncn3[C@@H]2O[C@H](CO)[C@@H](O)[C@H]2O)cc1`: 4.17 µM.

Compound `Cc1ccc(CNc2ncnc3c2ncn3[C@@H]2O[C@H](CO)[C@@H](O)[C@H]2O)cc1[N+](=O)[O-]` had an IC50 of 1.17 µM. As for `OC[C@H]1O[C@@H](n2cnc3c(CSc4ccc(I)cc4)ncnc32)[C@H](O)[C@@H]1O`, the IC50 is 0.0692 µM.

The compound `COC(=O)c1ccc(SCc2ncnc3c2ncn3[C@@H]2O[C@H](CO)[C@@H](O)[C@H]2O)cc1` had an IC50 of 0.813 µM. Consider `OC[C@H]1O[C@@H](n2cnc3c(CSc4ccccc4I)ncnc32)[C@H](O)[C@@H]1O`, for which the 50% inhibitory concentration (IC50) was 0.282 µM.

`O=[N+]([O-])c1ccc(CNc2ncnc3c2ncn3[C@@H]2O[C@H](CO)[C@@H](O)[C@H]2O)c(Cl)c1` showed an IC50 of 0.347 µM. In turn, `OC[C@H]1O[C@@H](n2cnc3c(NCc4ccccc4)ncnc32)[C@H](O)[C@@H]1O` [N6-BENZYLADENOSINE] gave a half-inhibitory concentration (IC50) of 10.7 µM. Next, `OC[C@H]1O[C@@H](n2cnc3c(N4CCc5ccccc5C4)ncnc32)[C@H](O)[C@@H]1O`: 1.82 µM. Turning to `OC[C@H]1O[C@@H](n2cnc3c(CSc4ccc(Cl)cc4)ncnc32)[C@H](O)[C@@H]1O`, the IC50 was 0.251 µM.

Compound `Nc1ncnc2c1ncn2[C@@H]1O[C@H](COCCOCCNc2ncnc3c2ncn3[C@@H]2O[C@H](CO)[C@@H](O)[C@H]2O)[C@@H](O)[C@H]1O` gave an IC50 of 912 µM. Next, `CCCCCNc1ncnc2c1ncn2[C@@H]1O[C@H](CO)[C@@H](O)[C@H]1O`: 13.5 µM; `CCCC(C)n1cnc2c(SCc3ccccn3)nc(N)nc21` (stereo unspecified): 41.7 µM; `Cc1ccc2ccccc2c1CSc1ncnc2c1ncn2[C@@H]1O[C@H](CO)[C@@H](O)[C@H]1O`: 115 µM.

Take `Nc1ncnc2c1c(I)cn2[C@@H]1O[C@H](CO)[C@@H](O)[C@H]1O` [IODOTUBERCIDIN]: the 50% inhibitory concentration (IC50) was 229 µM.

Regarding `OC[C@H]1O[C@@H](n2cnc3c(CSc4ccc(OC(F)(F)F)cc4)ncnc32)[C@H](O)[C@@H]1O`, the IC50 is 0.123 µM. Next, `COc1ncnc2c1ccn2[C@@H]1O[C@H](CO)[C@@H](O)[C@H]1O`: 339 µM.

`O=[N+]([O-])c1cccc2c1CN(c1ncnc3c1ncn3[C@@H]1O[C@H](CO)[C@@H](O)[C@H]1O)CC2` gave a half-inhibitory concentration (IC50) of 3.63 µM. Next, `CCCCSc1nc(N)nc2c1ncn2[C@@H]1O[C@H](CO)[C@@H](O)[C@H]1O`: 12 µM; `O=[N+]([O-])c1ccc(CNc2ncnc3c2ncn3[C@@H]2O[C@H](CO)C[C@H]2O)cc1`: 0.977 µM. Next, `CCCn1cnc2c(SC(C)C)nc(N)nc21`: 145 µM; `OC[C@H]1O[C@@H](n2cnc3c(CSc4ccc(Br)cc4)ncnc32)[C@H](O)[C@@H]1O`: 0.178 µM. Next, `OC[C@H]1O[C@@H](n2cnc3c(SCc4ccccc4)ncnc32)[C@H](O)[C@@H]1O` [6-BENZYLTHIOINOSINE]: 1.7 µM; `OC[C@H]1O[C@@H](n2cnc3c(Sc4ccccc4)ncnc32)[C@H](O)[C@@H]1O`: 91.2 µM. In turn, `Nc1nc(SCc2ccc(Br)cc2)c2ncn([C@@H]3O[C@H](CO)[C@@H](O)[C@H]3O)c2n1` had an IC50 of 0.813 µM. Next, `CSc1ncnc2c1ncn2C1CCCCO1` (stereo unspecified): 275 µM. The compound `CCCCn1cnc2c(SC(C)C)nc(N)nc21` gave a concentration for half-maximal inhibition (IC50) of 120 µM. Next, `c1ccc(CCNc2ncnc3[nH]ncc23)cc1`: 100 µM; `CSc1nc(N)nc2c1ncn2[C@@H]1O[C@H](CO)[C@@H](O)[C@H]1O`: 204 µM. Next, `OC[C@H]1O[C@@H](n2cnc3c(CSc4cccc(Br)c4)ncnc32)[C@H](O)[C@@H]1O`: 0.363 µM; `CCSc1ncnc2c1ncn2[C@@H]1O[C@H](CO)[C@@H](O)[C@H]1O`: 57.5 µM; `CCCCn1cnc2c(SCc3ccccn3)nc(N)nc21`: 52.5 µM.
